Here are results for twelve compounds from patent US7868206B2, “Trihalomethionine derivative and pharmaceutical product containing the same” (National University Corporation, Gunma University, priority 2005, dated 2011).

“And” between values parts separate entries of the source, which are not always exact repeats. Equal entries are not always repeated. “Also recorded” adds a separate entry of the source. Structures can show the parent of a compound that is named as a salt. Where two headings read alike, the source gives them in different places.

The subject of assay [1] is Entamoeba histolytica HM1: IMSS c16 strain. In words: Inhibition of proliferation of Entamoeba histolytica, anaerobic culture in 96-well plate, 72 hours, WST-1 (Example 2). It is filed as cell-based. Particulars: for IC50: Entamoeba histolytica, 0.25 to 20 μM, anaerobic culture, read-out: IC50 (concentration required to inhibit proliferation by 50% compared to untreated controls). As to the method:
The Entamoeba histolytica HM1: IMSS c16 strain was cultured for 18 hours in a medium containing each compound at a concentration of 80 μM. […] The cell number was measured by determining the number of living cells of Entamoeba histolytica using WST-1 (Roche Diagnostics K.K.).
The killing effects of each of the compounds: trifluoromethionine (TFM), trifluoromethionine amide (WY200), SK254, SK258, WY241, WY244, WY252, K010, SK276, SK316, SK336, and SK337 on Entamoeba histolytica HM1: IMSS c16 strain were examined. The Entamoeba histolytica HM1: IMSS c16 strain was anaerobically cultured in a medium containing each compound at a concentration of 0.25 to 20 μM in a 96-well plate: The number of cells after 72 hours was determined in the same way as Example 1. […] It was found from the results that many compounds including SK337 killed the Entamoeba histolytica protozoan at concentrations more than 10-fold lower than the concentration of trifluoromethionine.

For assay [2] the test system is unchanged. Particulars: for Total liver weight / Liver non-abscess portions / Liver abscess portions: individual hamsters A, B, C; for Liver abscess portions: dash = no abscess (total = non-abscess). As to the method:
Next, the compound of the present invention was evaluated in an animal infection experiment using a hamster liver abscess model. First, an Entamoeba histolytica HM1: IMSS c16 strain was injected to 3-week-old female hamsters to induce liver abscesses. […] In Table 2, A, B, and C in the respective groups show individual hamsters used. Many other compounds (trifluoromethionine, SK254, SK258, WY241, WY244, and WY252) were evaluated in animal infection experiments in the same way as Example 3.

Assay [3] has the same test system. Put plainly: Killing effect on Entamoeba histolytica, living cell number by WST-1 after 18 hours (Example 1, FIG. 1). It is filed as cell-based. Particulars: 80 μM, 18 hours culture. How it is done:
The killing effect of each of the compounds: trifluoromethionine (TFM), trifluoromethionine amide (WY200), metronidazole (known anti-amoeba drug) on an Entamoeba histolytica HM1: IMSS c16 strain was examined. The Entamoeba histolytica HM1: IMSS c16 strain was cultured for 18 hours in a medium containing each compound at a concentration of 80 μM. […] The cell number was measured by determining the number of living cells of Entamoeba histolytica using WST-1 (Roche Diagnostics K.K.).
A general note: Tetrazolium dyes change colour on reduction, which living cells bring about.

Setting [4] is: intraperitoneal 3 μmol (1.1 to 1.3 mg) per hamster (body weight 28 to 37 g).
Setting [5] is: intraperitoneal 3 μmol per hamster.
The mark [6] stands for this setting: intraperitoneal 3 μmol (1.1 to 1.3 mg) per hamster (body weight 28 to 37 g), hydrochloride.
[7] abbreviates: intraperitoneal 3 μmol per hamster, hydrochloride.

As to `COc1cc(NC(=O)[C@@H](N)CCSC(F)(F)F)cc(OC)c1OC` [SK336, (S)-2-amino-N-(3,4,5-trimethoxyphenyl)-4-(trifluoromethylthio)butanamide hydrochloride], in assay [1], the IC50 was found to be 1.7 µM.
On to `Cl.N[C@@H](CCSC(F)(F)F)C(=O)Nc1ccc(Br)cc1` [WY241, 1-(4-bromophenylcarbamoyl)-3-trifluoromethylsulfanyl-propyl-ammonium chloride], for which, in assay [1], the IC50 was determined as 11.8 µM. For the same compound, in assay [2] (setting [4]), the Total liver weight entry was “A. 2,916 mg; also recorded: B. 2,371 mg; also recorded: C. 2,900 mg”. For the same compound, the Liver non-abscess portions in assay [2] (setting [5]) was 2,916 mg and 2,371 mg and 2,900 mg.
Consider `N[C@@H](CCSC(F)(F)F)C(=O)NC1CCc2ccccc21` (stereo partly drawn) [SK276, (2S)-2-amino-N-(2,3-dihydro-1H-inden-1-yl)-4-(trifluoromethylthio) butanamide hydrochloride], for which the IC50 in assay [1] amounted to 6.8 µM.
As to `Cl.N[C@@H](CCSC(F)(F)F)C(=O)Nc1ccccc1` [SK258, (S)-2-amino-N-phenyl-4-(trifluoromethylthio)butanamide hydrochloride], the IC50 in assay [1] was 2.5 µM. In addition, the Total liver weight entry in assay [2] (setting [6]) is “A. 2,071 mg; also recorded: B. 2,768 mg; also recorded: C. 1,510 mg”. Also, the Liver non-abscess portions in assay [2] (setting [7]) is 2,071 mg and 2,768 mg and 1,510 mg.
On to `Cl.N[C@@H](CCSC(F)(F)F)C(=O)NCc1ccccc1` [SK254, (S)-2-amino-N-benzyl-4-(trifluoromethylthio)butanamide hydrochloride], for which the IC50 in assay [1] came out at 2.5 µM. In assay [2] (setting [6]), the Total liver weight result is “A. 2,318 mg; also recorded: B. 2,193 mg; also recorded: C. 2,386 mg”. In addition, the Liver non-abscess portions in assay [2] (setting [7]) was 2,318 mg and 2,193 mg and 2,386 mg.
In the case of `COc1cc(NC(=O)[C@@H](N)CCSC(F)(F)F)cc(OC)c1.Cl` [WY252, 1-(3,5-dimethoxy-phenylcarbamoyl)-3-trifluoromethylsulfanyl-propylammonium chloride], the IC50 in assay [1] turned out to be 1.6 µM. Besides, the Total liver weight entry in assay [2] (setting [4]) is recorded as “A. 2,539 mg; also recorded: B. 3,338 mg; also recorded: C. 2,687 mg”. In addition, in assay [2] (setting [5]), the Liver non-abscess portions is 2,1204 mg and 3,338 mg and 2,687 mg; the Liver abscess portions is 19 mg.
For `N[C@@H](CSC(F)(F)F)C(=O)NCc1ccccc1` [SK316, (R)-2-amino-N-benzyl-3-(trifluoromethylthio)propanamide hydrochloride], in assay [1], the IC50 was found to be 8.9 µM.
For `Cl.N[C@@H](CCSC(F)(F)F)C(=O)Nc1ccc(F)cc1F` [WY244, 1-(2,4-difluoro-phenylcarbamoyl)-3-trifluoromethylsulfanyl-propyl-ammonium chloride], in assay [1], the IC50 stood at 5.5 µM. Moreover, the Total liver weight entry in assay [2] (setting [4]) was “A. 2,575 mg; also recorded: B. 2,181 mg; also recorded: C. 2,570 mg”. Further, in assay [2] (setting [5]), the Liver non-abscess portions is 2,561 mg and 2,181 mg and 2,570 mg; the Liver abscess portions was 14 mg.
`NC(=O)[C@@H](N)CCSC(F)(F)F` [WY200, trifluoromethionine amide]: the “killing effect on Entamoeba histolytica (number of living cells)” value in assay [3] is “more effectively than trifluoromethionine”. Further, the Total liver weight result in assay [2] (setting [4]) is “A. 3,059 mg; also recorded: B. 1,624 mg”. Further, in assay [2] (setting [5]), the Liver non-abscess portions was 3,059 mg and 1,624 mg. Further, in assay [2] (intraperitoneal 40 μmol), the “increase of total weights of the liver (in words)” value is on record as “did not increase the total weights of the liver”; the “liver abscess formation (in words)” value is given as “caused no liver abscess”; the Liver non-abscess portions is 2814 mg and 2145 mg. Also, the Total liver weight entry in assay [2] (intraperitoneal 40 μmol, 3-week-old female hamsters) is “B. 2814 mg; also recorded: A. 2157 mg”.
Take `N[C@@H](CCSC(F)(F)F)C(=O)O` [TFM, trifluoromethionine, reference compound]: in assay [1], the IC50 was determined as 17.2 µM. In addition, the Total liver weight result in assay [2] (setting [4]) is “A. 2,240 mg; also recorded: B. 2,415 mg; also recorded: C. 2,575 mg”. In assay [2] (setting [5]), the Liver non-abscess portions is 2,240 mg and 2,415 mg and 2,575 mg.
With `COc1ccc(NC(=O)[C@@H](N)CCSC(F)(F)F)cc1OC.Cl` [SK337, (S)-2-amino-N-(3,4-dimethoxyphenyl)-4-(trifluoromethylthio)butanamide hydrochloride], the IC50 in assay [1] amounted to 1.5 µM. For the same compound, the “concentration lower than the concentration of trifluoromethionine” value in assay [1] (compared with trifluoromethionine) was “more than 10 fold”.
For `NC(CSC(F)(F)F)C(=O)Nc1ccccc1` (stereo in doubt) [KO10, (S)-2-amino-N-phenyl-3-(trifluoromethylthio)propanamide hydrochloride], the IC50 in assay [1] came to 13.7 µM.
